From ChEMBL document CHEMBL2429793, “Potent cytotoxic flavonoids from Iranian Securigera securidaca” (Med Chem Res, 2013) come the findings set out here.

In brackets after ≈: the same amount, converted by molar mass.

The subject of experiment [1] is NIH3T3. Briefly: Cytotoxicity against mouse NIH/3T3 cells after 96 hrs by MTT assay. The following applies: NIH3T3, 96 h. It is filed as cell-based. In general terms: Formazan colour is commonly taken as a measure of viable cells.
Experiment [2] concerns T47D. Put plainly: Cytotoxicity against human T47D cells after 48 hrs by MTT assay. It is filed as functional, cell-based.
Experiment [3] relates to Caco-2. Put plainly: Cytotoxicity against human Caco2 cells after 48 hrs by MTT assay. Type of experiment: functional, cell-based. The conditions noted are these: Caco-2, 48 h.
For experiment [4], the system named is HT-29. Briefly: Cytotoxicity against human HT-29 cells after 48 hrs by MTT assay. It is filed as functional, cell-based. The following applies: HT-29, 48 h.
For experiment [5], the system named is Bel-7402. Put plainly: Cytotoxicity against human Bel7402 cells. Type of experiment: functional, cell-based.
Experiment [6] deals with HCT-116. Briefly: Cytotoxicity against human HCT116 cells. Type of experiment: functional, cell-based.

As to `O=C(/C=C/c1ccc(O)cc1)c1c(O)cc(O)cc1O[C@@H]1O[C@H](CO)[C@@H](O)[C@H](O)[C@H]1O`, the IC50 in experiment [1] was over 200 µg/mL; in experiment [2], over 200 µg/mL; in experiment [3] it was 8.45 µg/mL (≈ 19.5 µM).

For the molecule `O=c1c(-c2ccc(O[C@@H]3O[C@H](CO)[C@@H](O)[C@H](O)[C@H]3O)c(O)c2)coc2cc(O)cc(O)c12`, the 50% inhibitory concentration (IC50) is over 200 µg/mL in experiment [1], 0.169 µg/mL (≈ 0.377 µM) in experiment [2], 0.006 µg/mL (≈ 0.0134 µM) in experiment [3] and 0.009 µg/mL (≈ 0.0201 µM) in experiment [4].

With `COc1cc(-c2oc3cc(O)cc(O)c3c(=O)c2O[C@@H]2O[C@H](CO)[C@@H](O)[C@H](O)[C@H]2O[C@@H]2O[C@@H](C)[C@H](O)[C@@H](O)[C@H]2O)ccc1O`, the IC50 in experiment [5] was 74.4 µM; in experiment [6], 72 µM; in experiment [1], over 200 µg/mL; in experiment [2], 0.003 µg/mL (≈ 0.0048 µM); in experiment [3], 2.47 µg/mL (≈ 3.95 µM).

In experiment [1], `CN(Cc1cnc2nc(N)nc(N)c2n1)c1ccc(C(=O)N[C@@H](CCC(=O)O)C(=O)O)cc1` [METHOTREXATE] registered an IC50 of 0.24 µg/mL (≈ 0.528 µM).

The term IC50 denotes the concentration that inhibits the measured activity by half. Low readings indicate greater potency in that assay, high ones weaker potency in that assay.
